Assay results: patent US20240101540A1, “TARGETED PROTEIN DEGRADATION OF PARP14 FOR USE IN THERAPY” (Ribon Therapeutics, Inc., priority 2022, published 2024)
Where a name gives a salt, the structure may show the parent alone.

molecular target: T1, HiBiT tagged PARP14 (Homo sapiens, UniProt Q460N5); assay: HiBiT assay for the degradation of PARP14 (HiBiT tagged PARP14 in LgBiT expressing Jurkat cells, 2 or 24 hours); format: cell-based; details: Assay B (Example B): HiBiT tagged PARP14 degradation in LgBiT expressing Jurkat cells, read-out: DC50
T1 construct: engineered to contain a HiBiT tag on both alleles of the PARP14 gene; endogenous in cells; host or cells: Jurkat cells stably transfected with LgBiT (Promega), PARP14 locus edited by CRISPR/Cas9
T1 sequence (Q460N5 whole entry): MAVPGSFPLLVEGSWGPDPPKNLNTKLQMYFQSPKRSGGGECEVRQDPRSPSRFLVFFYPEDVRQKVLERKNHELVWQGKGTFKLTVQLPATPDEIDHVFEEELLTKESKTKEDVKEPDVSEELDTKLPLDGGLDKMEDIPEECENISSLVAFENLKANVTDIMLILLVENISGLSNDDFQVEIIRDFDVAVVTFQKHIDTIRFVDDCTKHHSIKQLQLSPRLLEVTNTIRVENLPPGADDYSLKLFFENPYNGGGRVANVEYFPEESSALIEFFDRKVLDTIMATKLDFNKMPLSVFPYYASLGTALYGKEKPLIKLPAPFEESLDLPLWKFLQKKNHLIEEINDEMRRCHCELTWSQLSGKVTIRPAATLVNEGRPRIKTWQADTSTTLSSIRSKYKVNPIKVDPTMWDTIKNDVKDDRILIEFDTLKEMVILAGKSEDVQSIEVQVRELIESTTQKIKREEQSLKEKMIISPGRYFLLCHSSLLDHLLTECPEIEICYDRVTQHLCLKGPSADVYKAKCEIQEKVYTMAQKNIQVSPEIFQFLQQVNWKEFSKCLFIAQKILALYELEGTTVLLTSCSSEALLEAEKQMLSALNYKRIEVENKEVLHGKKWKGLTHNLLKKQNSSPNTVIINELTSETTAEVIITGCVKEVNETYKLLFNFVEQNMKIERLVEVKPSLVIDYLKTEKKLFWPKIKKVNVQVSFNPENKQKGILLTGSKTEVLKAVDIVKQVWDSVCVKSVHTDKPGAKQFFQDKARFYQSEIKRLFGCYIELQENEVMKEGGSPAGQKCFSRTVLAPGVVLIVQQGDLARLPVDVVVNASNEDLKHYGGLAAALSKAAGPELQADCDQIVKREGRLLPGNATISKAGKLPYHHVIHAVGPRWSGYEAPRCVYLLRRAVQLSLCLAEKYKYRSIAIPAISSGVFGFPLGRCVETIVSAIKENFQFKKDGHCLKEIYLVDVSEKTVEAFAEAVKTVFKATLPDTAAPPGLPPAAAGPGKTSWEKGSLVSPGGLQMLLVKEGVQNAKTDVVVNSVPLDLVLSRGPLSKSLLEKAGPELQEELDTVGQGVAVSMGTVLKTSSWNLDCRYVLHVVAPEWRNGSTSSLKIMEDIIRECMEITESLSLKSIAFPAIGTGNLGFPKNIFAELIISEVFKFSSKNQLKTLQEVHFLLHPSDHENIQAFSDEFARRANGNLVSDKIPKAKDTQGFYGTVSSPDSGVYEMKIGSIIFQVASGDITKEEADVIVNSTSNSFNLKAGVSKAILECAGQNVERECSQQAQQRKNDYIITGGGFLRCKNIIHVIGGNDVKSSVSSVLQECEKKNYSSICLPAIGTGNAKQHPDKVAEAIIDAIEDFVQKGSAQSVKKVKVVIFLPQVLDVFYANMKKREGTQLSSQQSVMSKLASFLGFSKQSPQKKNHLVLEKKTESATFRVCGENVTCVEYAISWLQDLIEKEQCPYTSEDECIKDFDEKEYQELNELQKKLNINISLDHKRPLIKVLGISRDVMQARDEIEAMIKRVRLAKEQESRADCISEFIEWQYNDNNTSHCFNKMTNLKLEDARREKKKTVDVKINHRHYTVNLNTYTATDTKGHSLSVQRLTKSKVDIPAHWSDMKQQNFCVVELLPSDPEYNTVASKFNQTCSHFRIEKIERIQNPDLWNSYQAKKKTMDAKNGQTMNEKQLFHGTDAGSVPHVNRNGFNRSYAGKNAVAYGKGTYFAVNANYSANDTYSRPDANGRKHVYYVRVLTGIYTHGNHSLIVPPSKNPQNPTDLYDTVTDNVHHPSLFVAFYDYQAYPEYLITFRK
Method in brief: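 Luminescence from HiBiT–LgBiT complementation served as proxy for endogenous PARP14 level in edited LgBiT Jurkat cells (5,000/well). After 2 or 24 h compound exposure at 37 °C, signal read with Live Cell Substrate, expressed as % of 0.1% DMSO control, and fitted (4-parameter, free Hill) for DC50.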

Compound | DC50 [nM]
O=C1CCC(Nc2ccc(N3CCC(C(=O)N4CCC(N5CCC(COc6cc(F)c7c(=O)[nH]c(COC8CCOCC8)nc7c6)CC5)CC4)CC3)c(F)c2)C(=O)N1 (centres unmarked) [Example 172, 3-((3-fluoro-4-(4-(4-(((5-fluoro-4-oxo-2-(((tetrahydro-2H-pyran-4-yl)oxy)methyl)-3,4-dihydroquinazolin-7-yl)oxy)methyl)-[1,4′-bipiperidine]-1′-carbonyl)piperidin-1-yl)phenyl)amino)piperidine-2,6-dione] | < 30
O=C1CCC(Nc2ccc(N3CCC(C(=O)N4CCC(N5CCC(COc6cc(F)c7c(=O)[nH]c(CSC8CCOCC8)nc7c6)CC5)CC4)CC3)c(F)c2)C(=O)N1 (centres unmarked) [Example 173, 3-((3-fluoro-4-(4-(4-(((5-fluoro-4-oxo-2-(((tetrahydro-2H-pyran-4-yl)thio)methyl)-3,4-dihydroquinazolin-7-yl)oxy)methyl)-[1,4′-bipiperidine]-1′-carbonyl)piperidin-1-yl)phenyl)amino)piperidine-2,6-dione formate] | < 30
O=C1CCC(Nc2ccc(N3CCN(CC(=O)N4CCC(COc5cc(F)c6c(=O)[nH]c(CSC7CCOCC7)nc6c5)CC4)CC3)c(F)c2)C(=O)N1 (centres unmarked) [Example 174, 3-((3-fluoro-4-(4-(2-(4-(((5-fluoro-4-oxo-2-(((tetrahydro-2H-pyran-4-yl)thio)methyl)-3,4-dihydroquinazolin-7-yl)oxy)methyl)piperidin-1-yl)-2-oxoethyl)piperazin-1-yl)phenyl)amino)piperidine-2,6-dione] | < 30
O=C1CCC(Nc2ccc(N3CCC(C(=O)N4CCC(N5CCC(COc6cc(F)c7c(=O)[nH]c(CCC8CCOCC8)nc7c6)CC5)CC4)CC3)c(F)c2)C(=O)N1 (centres unmarked) [Example 175, 3-((3-fluoro-4-(4-(4-(((5-fluoro-4-oxo-2-(2-(tetrahydro-2H-pyran-4-yl)ethyl)-3,4-dihydroquinazolin-7-yl)oxy)methyl)-[1,4′-bipiperidine]-1′-carbonyl)piperidin-1-yl)phenyl)amino)piperidine-2,6-dione] | < 30
O=C1CCC(Nc2ccc(N3CCC(C(=O)N4CCC(N5CCC(COc6cc(F)c7c(=O)[nH]c(CSC8CCOCC8)nc7c6)CC5)C4)CC3)c(F)c2)C(=O)N1 (centres unmarked) [Example 176, 3-((3-fluoro-4-(4-(3-(4-(((5-fluoro-4-oxo-2-(((tetrahydro-2H-pyran-4-yl)thio)methyl)-3,4-dihydroquinazolin-7-yl)oxy)methyl)piperidin-1-yl)pyrrolidine-1-carbonyl)piperidin-1-yl)phenyl)amino)piperidine-2,6-dione] | < 30
O=C1CCC(Nc2ccc(N3CCC(C(=O)N4CC(N5CCC(COc6cc(F)c7c(=O)[nH]c(COC8CCOCC8)nc7c6)CC5)C4)CC3)c(F)c2)C(=O)N1 (centres unmarked) [Example 177, 3-((3-fluoro-4-(4-(3-(4-(((5-fluoro-4-oxo-2-(((tetrahydro-2H-pyran-4-yl)oxy)methyl)-3,4-dihydroquinazolin-7-yl)oxy)methyl)piperidin-1-yl)azetidine-1-carbonyl)piperidin-1-yl)phenyl)amino)piperidine-2,6-dione] | < 30
O=C1CCC(Nc2ccc(N3CCC(C(=O)N4CC(N5CCC(COc6cc(F)c7c(=O)[nH]c(CC8CC8)nc7c6)CC5)C4)CC3)c(F)c2)C(=O)N1 (centres unmarked) [Example 178, 3-((4-(4-(3-(4-(((2-(cyclopropylmethyl)-5-fluoro-4-oxo-3,4-dihydroquinazolin-7-yl)oxy)methyl)piperidin-1-yl)azetidine-1-carbonyl)piperidin-1-yl)-3-fluorophenyl)amino)piperidine-2,6-dione] | < 30
O=C1CCC(Nc2ccc(N3CCC(N4CC(CC(=O)N5CCC(COc6cc(F)c7c(=O)[nH]c(CSC8CCOCC8)nc7c6)CC5)C4)CC3)c(F)c2)C(=O)N1 (centres unmarked) [Example 179, 3-((3-fluoro-4-(4-(3-(2-(4-(((5-fluoro-4-oxo-2-(((tetrahydro-2H-pyran-4-yl)thio)methyl)-3,4-dihydroquinazolin-7-yl)oxy)methyl)piperidin-1-yl)-2-oxoethyl)azetidin-1-yl)piperidin-1-yl)phenyl)amino)piperidine-2,6-dione] | < 30
O=C1CCN(c2ccc(N3CCC(CN4CCC(COc5cc(F)c6c(=O)[nH]c(COC7CCOCC7)nc6c5)CC4)CC3)c(F)c2)C(=O)N1 [Example 180, 1-(3-fluoro-4-(4-((4-(((5-fluoro-4-oxo-2-(((tetrahydro-2H-pyran-4-yl)oxy)methyl)-3,4-dihydroquinazolin-7-yl)oxy)methyl)piperidin-1-yl)methyl)piperidin-1-yl)phenyl)dihydropyrimidine-2,4(1H,3H)-dione] | < 30
Cn1nc(N2CCC(=O)NC2=O)c2ccc(N3CCC(CN4CCC(COc5cc(F)c6c(=O)[nH]c(CSC7CCOCC7)nc6c5)CC4)CC3)cc21 [Example 181, 1-(6-(4-((4-(((5-fluoro-4-oxo-2-(((tetrahydro-2H-pyran-4-yl)thio)methyl)-3,4-dihydroquinazolin-7-yl)oxy)methyl)piperidin-1-yl)methyl)piperidin-1-yl)-1-methyl-1H-indazol-3-yl)dihydropyrimidine-2,4(1H,3H)-dione] | < 30
Cn1nc(N2CCC(=O)NC2=O)c2cc(F)c(N3CCC(CN4CCC(COc5cc(F)c6c(=O)[nH]c(CSC7CCOCC7)nc6c5)CC4)CC3)cc21 [Example 182, 1-(5-fluoro-6-(4-((4-(((5-fluoro-4-oxo-2-(((tetrahydro-2H-pyran-4-yl)thio)methyl)-3,4-dihydroquinazolin-7-yl)oxy)methyl)piperidin-1-yl)methyl)piperidin-1-yl)-1-methyl-1H-indazol-3-yl)dihydropyrimidine-2,4(1H,3H)-dione] | < 30
Cn1nc(N2CCC(=O)NC2=O)c2cc(F)c(N3CCC(CN4CCC(COc5cc(F)c6c(=O)[nH]c(COC7CCOCC7)nc6c5)CC4)CC3)cc21 [Example 183, 1-(5-fluoro-6-(4-((4-(((5-fluoro-4-oxo-2-(((tetrahydro-2H-pyran-4-yl)oxy)methyl)-3,4-dihydroquinazolin-7-yl)oxy)methyl)piperidin-1-yl)methyl)piperidin-1-yl)-1-methyl-1H-indazol-3-yl)dihydropyrimidine-2,4(1H,3H)-dione] | < 30

Next, values leading:

DC50 [nM] | Compound
< 30 | Cn1nc(N2CCC(=O)NC2=O)c2ccc(N3CCC(COc4cc(F)c5c(=O)[nH]c(COC6CCOCC6)nc5c4)CC3)cc21 [Example 184, 1-(6-(4-(((5-fluoro-4-oxo-2-(((tetrahydro-2H-pyran-4-yl)oxy)methyl)-3,4-dihydroquinazolin-7-yl)oxy)methyl)piperidin-1-yl)-1-methyl-1H-indazol-3-yl)dihydropyrimidine-2,4(1H,3H)-dione]
< 30 | Cn1nc(N2CCC(=O)NC2=O)c2cc(F)c(N3CC(N4CCC(COc5cc(F)c6c(=O)[nH]c(CSC7CCOCC7)nc6c5)CC4)C3)cc21 [Example 185, 1-(5-fluoro-6-(3-(4-(((5-fluoro-4-oxo-2-(((tetrahydro-2H-pyran-4-yl)thio)methyl)-3,4-dihydroquinazolin-7-yl)oxy)methyl)piperidin-1-yl)azetidin-1-yl)-1-methyl-1H-indazol-3-yl)dihydropyrimidine-2,4(1H,3H)-dione]
< 30 | Cn1nc(N2CCC(=O)NC2=O)c2ccc(C3CCN(CCOc4cc(F)c5c(=O)[nH]c(CSC6CCOCC6)nc5c4)CC3)cc21 [Example 186, 1-(6-(1-(2-((5-fluoro-4-oxo-2-(((tetrahydro-2H-pyran-4-yl)thio)methyl)-3,4-dihydroquinazolin-7-yl)oxy)ethyl)piperidin-4-yl)-1-methyl-1H-indazol-3-yl)dihydropyrimidine-2,4(1H,3H)-dione]
< 30 | Cn1nc(N2CCC(=O)NC2=O)c2ccc(C3CCN(C4CCN(CCOc5cc(F)c6c(=O)[nH]c(CSC7CCOCC7)nc6c5)CC4)CC3)cc21 [Example 187, 1-(6-(1′-(2-((5-fluoro-4-oxo-2-(((tetrahydro-2H-pyran-4-yl)thio)methyl)-3,4-dihydroquinazolin-7-yl)oxy)ethyl)-[1,4′-bipiperidin]-4-yl)-1-methyl-1H-indazol-3-yl)dihydropyrimidine-2,4(1H,3H)-dione diformate]
< 30 | O=C1CCC(Nc2ccc(C(=O)N3CCN(CCN4CCC(COc5cc(F)c6c(=O)[nH]c(CSC7CCOCC7)nc6c5)CC4)CC3)cc2)C(=O)N1 (centres unmarked) [Example 188, 3-((4-(4-(2-(4-(((5-fluoro-4-oxo-2-(((tetrahydro-2H-pyran-4-yl)thio)methyl)-3,4-dihydroquinazolin-7-yl)oxy)methyl)piperidin-1-yl)ethyl)piperazine-1-carbonyl)phenyl)amino)piperidine-2,6-dione]
< 30 | O=C1CCC(Nc2ccc(N3CCN(C(=O)CN4CCC(COc5cc(F)c6c(=O)[nH]c(CSC7CCOCC7)nc6c5)CC4)CC3)c(F)c2)C(=O)N1 (centres unmarked) [Example 189, 3-((3-fluoro-4-(4-(2-(4-(((5-fluoro-4-oxo-2-(((tetrahydro-2H-pyran-4-yl)thio)methyl)-3,4-dihydroquinazolin-7-yl)oxy)methyl)piperidin-1-yl)acetyl)piperazin-1-yl)phenyl)amino)piperidine-2,6-dione]
< 30 | O=C1CCC(N2C(=O)c3ccc(N4CCC(N5CCC(COc6cc(F)c7c(=O)[nH]c(CSC8CCOCC8)nc7c6)CC5)CC4)cc3C2=O)C(=O)N1 (centres unmarked) [Example 190, 2-(2,6-dioxopiperidin-3-yl)-5-(4-(((5-fluoro-4-oxo-2-(((tetrahydro-2H-pyran-4-yl)thio)methyl)-3,4-dihydroquinazolin-7-yl)oxy)methyl)-[1,4′-bipiperidin]-1′-yl)isoindoline-1,3-dione]
< 30 | O=C1CCC(N2C(=O)c3ccc(N4CCC(N5CC(N6CCC(COc7cc(F)c8c(=O)[nH]c(CSC9CCOCC9)nc8c7)CC6)C5)CC4)cc3C2=O)C(=O)N1 (centres unmarked) [Example 191, 2-(2,6-dioxopiperidin-3-yl)-5-(4-(3-(4-(((5-fluoro-4-oxo-2-(((tetrahydro-2H-pyran-4-yl)thio)methyl)-3,4-dihydroquinazolin-7-yl)oxy)methyl)piperidin-1-yl)azetidin-1-yl)piperidin-1-yl)isoindoline-1,3-dione]
